The test system of data set [1] is PC3 prostate cancer cell line. Put plainly: Antiproliferative cell assay (CellTiter-Glo), PC3. In kind it is cell-based, human. The following applies: 48 h exposure, read-out: IC50 against prostate cancer cell line PC3. The procedure: (§1) Cell Culture Materials. The 22Rv1, DU145, LNCaP and PC3 prostate cancer cell lines were obtained from American Type Culture Collection (ATCC, Rockville, Md.). The LNCaP-AR and Hi-Myc cell lines were a kind donation by Dr. C. Sawyers (David Geffen School of Medicine, UCLA, Los Angeles, Calif.). DU145, 22Rv1, LNCaP, LNCaP-AR, and PC3 cells were grown in RPMI 1640; Hi-Myc cells were grown in Isecove's Modified Dulbecco's Medium. All media contained 10% fetal bovine serum (FBS) in the presence of 100 U/mL penicillin and 0.1 g/L streptomycin. RWPE-1 prostate cells were grown in Defined Keratinocyte Serum Free Medium (DKSFM) containing epidermal growth factor (EGF), insulin and fibroblast growth factor (FGF). Cells were incubated at 37° C. with 95% air and 5% CO2. All cells were maintained below passage 20 and used in experiments during the linear phase of growth.
(§2) Proliferation was measured utilizing the CellTiter-Glo® Luminescent Cell Viability Assay (Technical Bulletin #288, Promega Corp., Madison, Wis.). When added to cells, the assay reagent produces luminescence in the presence of ATP from viable cells. Cells were plated in 96-well plates at a density of 10,000 cells/well and incubated for 24 hours. Test samples were solubilized in DMSO by sonication, filter sterilized and diluted with media to the desired treatment concentration. Cells were treated with 100 μLcontrol media, vehicle control (DMSO<0.2% of total) or test samples and incubated for 48 h drug exposure duration at 6.25, 12.5, 25, 50 and 100 μg/mL concentrations. At the end of 48 h, plates were equilibrated at room temperature for 30 min; 100 μL of the assay reagent was added to each well and cell-lysis was induced on an orbital shaker for 2 min. Plates were incubated at room temperature for 10 min to stabilize the luminescence signal and results were read on an Orion Microplate Luminometer (Bertholds Detection Systems, Pforzheim, Germany). All plates had control wells containing medium without cells to obtain a value for background luminescence. Data are expressed as percentage of untreated cells (i.e. treatment value-blank/vehicle value-blank), mean±SE for three replications.
In general terms: Cellular ATP, detected with luciferase, serves as a proxy for viable cell number.

The test system of data set [2] is Hi-Myc prostate cancer cell line. Put plainly: Antiproliferative cell assay (CellTiter-Glo), Hi-Myc. It counts as cell-based. The following applies: Hi-Myc (mouse), 48 h exposure, read-out: IC50 against prostate cancer cell line HiMyc. The procedure:
as §1, §2

The subject of data set [3] is DU145 prostate cancer cell line. Put plainly: Antiproliferative cell assay (CellTiter-Glo), DU145. In kind it is cell-based, human. The following applies: read-out: IC50 against prostate cancer cell line DU145. The procedure:
as §1, §2

Data set [4] concerns LNCaP-AR prostate cancer cell line. Put plainly: Antiproliferative cell assay (CellTiter-Glo), LNCaP-AR. In kind it is cell-based, human. To be noted: 48 h exposure, read-out: IC50 against prostate cancer cell line LNCap-AR. The procedure: as §1, §2
The subject of data set [5] is LNCaP prostate cancer cell line. Put plainly: Antiproliferative cell assay (CellTiter-Glo), LNCaP. In kind it is cell-based, human. To be noted: 48 h exposure, read-out: IC50 against prostate cancer cell line LNCaP. The procedure: as §1, §2
The test system of data set [6] is 22Rv1 prostate cancer cell line. Put plainly: Antiproliferative cell assay (CellTiter-Glo), 22Rv1. In kind it is cell-based, human. To be noted: 48 h exposure, read-out: IC50 against prostate cancer cell line 22 Rv1. The procedure:
as §1, §2

Data set [7] concerns human colon cancer cell line HCT-116. Put plainly: Antiproliferative activity against colon cancer cells (CellTiter-Glo). It counts as cell-based. The following applies: 100 μg/mL, 48 hrs. The procedure: (§3) EA and EA-metabolites (gallic and gallagic acids, urolithin B and methylated-urolithin A) were evaluated for antiproliferative activity against the human colon cancer cell line HCT-116. The cells were grown to a concentration of 10,000 cells per well in a 96 well format; and were then resuspended in medium containing vehicle control or the indicated compound: Ellagic acid, urolithin A, methyl urolithin A, or urolithin B, at a concentration of 100 μg/mL. The cells were incubated for 48 hrs, and the viability assayed by the CellTiter-Glo® Luminescent Cell Viability Assay (Technical Bulletin #288, Promega Corp., Madison, Wis.).

The test system of data set [8] is human pancreatic cancer cell line ASPC-1. Put plainly: Antiproliferative activity against pancreatic cancer cells (CellTiter-Glo), ASPC-1. In kind it is cell-based. The following applies: 100 μg/mL, 48 hrs. The procedure:
as §3, with “pancreatic” for “colon”, “lines ASPC-1 and BXPC-3.” for “line HCT-116.”, “well;” for “well in a 96 well format;”, “containing the” for “containing”, “byCellTiter-Glo®” for “by the CellTiter-Glo®”

The subject of data set [9] is human pancreatic cancer cell line BXPC-3. Put plainly: Antiproliferative activity against pancreatic cancer cells (CellTiter-Glo), BXPC-3. It counts as cell-based. To be noted: 100 μg/mL, 48 hrs. The procedure:
as §3, with “pancreatic” for “colon”, “lines ASPC-1 and BXPC-3.” for “line HCT-116.”, “well;” for “well in a 96 well format;”, “containing the” for “containing”, “byCellTiter-Glo®” for “by the CellTiter-Glo®”

Data set [10] concerns LNCaP-AR cells. Put plainly: In vitro proliferation (tritiated thymidine uptake), LNCaP-AR. In kind it is cell-based. To be noted: mean ± SE, read-out: IC50 on growth of human prostate cancer cells. The text has this: (§4) DU145 and LNCaP cells (ATCC, Rockville, Md.), 22Rv1 cells (gift from Pinchas Cohen), and LNCAP-AR cells (gift from Charles Sawyers) were maintained below passage 20 and used in experiments during the linear phase of growth as previously described (Seeram et al. J Nutr Biochem. 16 (2005), p. 360). EA was purchased from Sigma-Aldrich (St. Louis, Mo.). UA (3,8-dihydroxy-6H-benzo[b,d]chromen-6-one), methylated UA and dimethylated UA were synthesized in our laboratory as previously described (Ghosal et al. J Chem Res Synop. 11 (1989), p. 350). Compounds were dissolved in dimethylsulfoxide (DMSO) then added to media to achieve the final desired test concentration with a final DMSO concentration not exceeding 0.1%. Proliferation was determined by tritiated thymidine uptake as previously described. All assays were performed in triplicate.
(§5) For the cell proliferation assays, data are expressed as a percentage of untreated cells (i.e. treatment value-blank/vehicle value-blank), mean±SE for at least three separate experiments. Data were analyzed by either student's t-test or one-way ANOVA followed by Dunnett's Multiple Range test (α=0.05) with Graph Pad Prism 3.0 (Graph Pad Software Inc.) as appropriate.

Data set [11] has as its system LNCaP cells. Put plainly: In vitro proliferation (tritiated thymidine uptake), LNCaP. In kind it is cell-based. To be noted: mean ± SE, read-out: IC50 on growth of human prostate cancer cells.
Text: as §4, §5

Data set [12] deals with 22Rv1 cells. Put plainly: In vitro proliferation (tritiated thymidine uptake), 22RV1. To be noted: mean ± SE, read-out: IC50 on growth of human prostate cancer cells. It counts as cell-based.
Text: as §4, §5

In data set [13] the test system is DU145 cells. Put plainly: In vitro proliferation (tritiated thymidine uptake), DU145. In kind it is cell-based. To be noted: read-out: IC50 on growth of human prostate cancer cells.
Text: as §4, §5

Data set [14] in a line: Tissue disposition study after UA administration. In kind it is in vivo, C57/B6 mice. The following applies: for UA and UA-conjugate levels in plasma at 24 h / UA and UA-conjugate levels in tissues at 24 h: below detectable limit. The procedure:
Pomegranate extract (PE) derived from the skin of pomegranate fruit (Punica granatum L., Paramount Farms, Lost Hills, Calif.) was standardized to 37% ETs (as punicalagins) and 3.5% free EA as reported (Seeram et al. Sep Purific Tech. 41 (2005), p. 49). PE was administered to animals in doses based on the amount of ETs in a single serving of pomegranate juice (240 ml of single strength juice, 80 mg of ETs). The equivalent dose that would be administered to a 70 kg human was calculated for a mouse of 25 g body weight to be 0.03 mg ETs. Ten times (10×) this dose was used in the animal studies (0.8 mg PE per dose per animal) to enhance our ability to detect phytochemical distribution. For studies administering UA, doses were calculated assuming complete conversion of ETs to UA. […] Both PE and UA were suspended in 50 μL PBS or 10% aqueous glucose solution for intraperitoneal or oral administration, respectively.
Male C57/B6 mice (n=156 mice, retired breeders, 7 months old, 25-30 g) from Charles River laboratories (Wilmington, Mass.) were fed AlN 93G diets and water ad libitum, and fasted 6 h prior to dosing. Mice were dosed orally or intraperitoneally with either PE (0.8 mg/mouse/dose; n=72), UA (0.3 mg/mouse/dose; n=72) or vehicle control (50 μL; n=12 mice). Blood samples were collected at 0.5, 1, 2, 4, 6 and 24 h after dosing and prostate, liver, kidney, lung, colon, intestine and brain tissues were collected and stored at −80° C. Harvested tissue (200 mg) was homogenized in methanol with 0.1% acetic acid (1 mL) and centrifuged at 3000×g for 10 min. The supernatant was dried on a SpeedVac then reconstituted with 200 μL of the HPLC mobile phase for a final injection volume of 20 μL. Xenograft tissue homogenates required acid hydrolysis prior to chromatography as reported (Gu et al. J Agric Food Chem. 53 (2005), p. 6858). HPLC-UV and HPLC-MS/MS analyses were carried out on a Waters Alliance 2690 system (Waters Corp., Milford, Mass.) an LCQ Classic Finnigan system (ThermoFinnigan, San Jose, Calif.), respectively, as previously described (Seeram et al. Clin Chim Acta. 348 (2004), p. 63). Linear calibration curves were constructed using a spiked internal standard method with EA or UA using plasma or liver tissues collected from control mice as described previously (Seeram et al. Clin Chim Acta. 348 (2004), p. 63). Accuracy values ranged from 91-108% for the quality control samples containing the EA or UA standard.

Where [15] appears, read: Homo sapiens, DU-145, 48 h exposure.
Setting [16] is: UA 0.3 mg/mouse/dose intraperitoneal.

Where two headings read alike, the source gives them in different places.

Results on six molecules are retold here after patent US8648112B2, “Therapeutic uses of urolithins” (The Regents of the University of California, priority 2006, dated 2014).

On to `O=C(O)c1cc(O)c(O)c(O)c1-c1c(O)c(O)c2oc(=O)c3c(-c4c(C(=O)O)cc(O)c(O)c4O)c(O)c(O)c4oc(=O)c1c2c43` [Gallagic acid], for which the IC50 (in general, the concentration at which inhibition is half-maximal) in data set [1] stood at 83.6 µM; in data set [2], 82.7 µM; in data set [3] (48 h exposure) it was 198 µM; in data set [4], 82.4 µM; in data set [5], 71.4 µM; in data set [6], 166 µM.
`COc1ccc2c(c1)c(=O)oc1cc(O)ccc12` [8-methyl-Urolithin A, 3-hydroxy-8-methoxyl-6H-dibenzo[b,d]pyran-6-one]: the concentration for half-maximal inhibition (IC50) in [1] (Homo sapiens) was 526 µM; in data set [2] it was 586 µM; in data set [3] (setting [15]), 466 µM; in data set [4] (Homo sapiens), 151 µM; in data set [5] (Homo sapiens), 206 µM; in data set [6] (Homo sapiens, 22Rv1, 48 h), 127 µM. For the same molecule, the “anti-proliferative activity, rank order” value in [7] is “urolithin A is the most active, then ellagic acid, urolithin B and methyl urolithin A”; in [8], “urolithin A is the most active, then ellagic acid, urolithin B and methyl urolithin A”; in [9], “urolithin A is the most active, then ellagic acid, urolithin B and methyl urolithin A”.
With `O=c1oc2c(O)c(O)cc3c(=O)oc4c(O)c(O)cc1c4c23` [Ellagic acid, reference compound], the IC50 stood at 78.7 ± 3.2 µM in [10] (Homo sapiens); 83.6 µM in [1] (Homo sapiens); 62.4 ± 4.2 µM in data set [11] (Homo sapiens); 1.7 µM in [2]; 109 ± 16.6 µM in data set [12] (Homo sapiens); 96 µM in data set [3] (setting [15]). In addition, the IC50 turned out to be 82.6 µM in data set [4] (Homo sapiens); 20.5 µM in data set [5] (Homo sapiens); 41.7 µM in data set [6] (Homo sapiens, 22Rv1, 48 h); 74.3 ± 5.2 µM in [13] (Homo sapiens, DU-145, mean ± SE). The “anti-proliferative activity, rank order” value was “urolithin A is the most active, then ellagic acid, urolithin B and methyl urolithin A” in data set [7]; “urolithin A is the most active, then ellagic acid, urolithin B and methyl urolithin A” in data set [8]; “urolithin A is the most active, then ellagic acid, urolithin B and methyl urolithin A” in data set [9].
Regarding `O=C(O)c1cc(O)c(O)c(O)c1` [Gallic acid], the IC50 in [1] (Homo sapiens) came out at 111 µM; in data set [2] it was 73.5 µM; in [3] (setting [15]), 29.4 µM; in data set [4] (Homo sapiens), 29.2 µM; in [5] (Homo sapiens), 32.3 µM; in data set [6] it was 18.5 µM. In addition, the IC50 in data set [6] (Homo sapiens, 22Rv1, 48 h) was determined as 18.6 µM.
For `O=c1oc2cc(O)ccc2c2ccc(O)cc12` [UA, 3,8-dihydroxy-6H-benzo[b,d]chromen-6-one], the IC50 in data set [10] came to 43.3 ± 2.8 µM; in data set [11] it was 31.3 ± 0.5 µM; in data set [12] it was 47.8 ± 3.2 µM; in data set [13] (mean ± SE), 49.8 ± 3.9 µM. Also, the “UA and UA-conjugate levels in plasma at 24 h” value in [14] (setting [16]) and in [14] (UA 0.3 mg/mouse/dose oral) was < 3 ng/mL each time. For the same molecule, the “UA and UA-conjugate levels in tissues at 24 h” value in data set [14] (setting [16]) and in [14] (UA 0.3 mg/mouse/dose oral) was < 5 ng/g throughout. The “time of peak concentration in prostate, colon and intestine” value in [14] (UA intraperitoneally) was found to be 2 h. The tissue uptake entry in data set [14] (UA orally, prostate followed by small intestine and colon) is reported as “highest concentrations in the prostate gland”. The “anti-proliferative activity, rank order” value in [7], in data set [8] and in data set [9] was “most active” in each case.
Regarding `COc1ccc2c(c1)oc(=O)c1cc(OC)ccc12` [dmUA], the figures for the IC50 in data set [11], in data set [12] and in data set [13] (mean ± SE) were 71.4 ± 13.5 µM, 85 ± 8.6 µM and 70.7 ± 13 µM, respectively.
